These compounds were tested against T1, AURKA (Homo sapiens, UniProt O14965) (assay: not given). Settings: 100 nM compound, Jurkat cells, 24 h, Table 2.
T1 construct: endogenous in cells; host or cells: Jurkat cells
T1 sequence (O14965 1-403): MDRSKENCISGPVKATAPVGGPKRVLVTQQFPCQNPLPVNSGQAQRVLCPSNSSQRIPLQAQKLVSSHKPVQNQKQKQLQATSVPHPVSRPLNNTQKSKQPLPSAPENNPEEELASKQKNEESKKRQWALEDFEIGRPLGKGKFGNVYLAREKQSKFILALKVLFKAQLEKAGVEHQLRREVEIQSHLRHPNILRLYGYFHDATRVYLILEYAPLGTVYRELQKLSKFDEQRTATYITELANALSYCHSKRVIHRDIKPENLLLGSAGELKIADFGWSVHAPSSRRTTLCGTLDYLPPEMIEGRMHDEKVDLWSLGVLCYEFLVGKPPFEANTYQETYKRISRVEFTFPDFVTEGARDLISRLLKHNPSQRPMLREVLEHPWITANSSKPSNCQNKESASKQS
Type: cell-based
Procedure, shortened: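 AURKA degradation read by western blot: band signal, fluorescent or chemiluminescent, curve-fitted to derive DC50. Cells were Jurkat, plated at 1×10^6 cells/500 µL with compound, then lysed and blotted onto nitrocellulose, primary antibody overnight at 4°C.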

Compound | Percentage of AURKA Degradation Induced by 100 nM Compound in Jurkat Cells
N#Cc1ccc2c(c1)C(c1c(F)cccc1F)=NCc1cnc(Nc3ccc(N4CC(F)(CN5CCN(c6ccc(N7CCC(=O)NC7=O)cn6)CC5)C4)cc3)nc1-2 [Compound A319] | +++ (Degradation > 70%)
CN(C)Cc1ccc2c(c1)C(c1c(F)cccc1F)=NCc1cnc(Nc3ccc(C(=O)NC4CC5(CCN(c6ccc(N7CCC(=O)NC7=O)cn6)CC5)C4)cc3)nc1-2 [Compound A172] | ++ (30% < Degradation ≤ 70%)
Cc1c(N2CCN(CCc3cccc(Nc4ncc5c(n4)-c4ccc(Cl)cc4C(c4c(F)cccc4F)=NC5)c3)CC2)cccc1N1CCC(=O)NC1=O [Compound A155] | ++ (30% < Degradation ≤ 70%)
O=C1CCN(c2ccc(N3CCC4(CCN(C(=O)C56CC(Nc7ncc8c(n7)-c7ccc(Cl)cc7C(c7c(F)cccc7F)=NC8)(C5)C6)CC4)CC3)nc2)C(=O)N1 [Compound A265] | + (Degradation ≤ 30%)
CP(C)(=O)c1ccc2c(c1)C(c1c(F)cccc1F)=NCc1cnc(Nc3ccc(N4CCN(C5CCN(c6ccc(N7CCC(=O)NC7=O)cn6)CC5)CC4=O)cc3)nc1-2 [Compound A268] | +++ (Degradation > 70%)
O=C1CCN(c2ccc(N3CCC4(CC3)CCN(C3CCN(c5ccc(Nc6ncc7c(n6)-c6ccc(Cl)cc6C(c6c(F)cccc6F)=NC7)cc5)CC3)CCO4)nc2)C(=O)N1 [Compound A355] | +++ (Degradation > 70%)
O=C1CCN(c2ccc(N3CCC4(CC3)CC(N3CCN(c5ccc(Nc6ncc7c(n6)-c6ccc(Cl)cc6C(c6nccs6)=NC7)cc5)CC3)CO4)nc2)C(=O)N1 (stereo not drawn) [Compound A345] | +++ (Degradation > 70%)
O=C1CCN(c2ccc(N3CCC4(CC3)C[C@@H](N3CCN(c5ccc(Nc6ncc7c(n6)-c6ccc(Cl)cc6C(c6c(F)cccc6F)=NC7)cc5)CC3)CO4)nc2)C(=O)N1 [Compound A341] | +++ (Degradation > 70%)
O=C1CCN(c2cccc(N3CCN(CCOc4cccc(Nc5ncc6c(n5)-c5ccc(C7CC7)cc5C(c5c(F)cccc5F)=NC6)c4)CC3)c2)C(=O)N1 [Compound A148] | +++ (Degradation > 70%)
Cn1nc(N2CCC(=O)NC2=O)c2ccc(N3CCC4(CC3)CC(N3CCN(c5ccc(Nc6ncc7c(n6)-c6ccc(Cl)cc6C(c6c(F)cccc6F)=NC7)cc5)CC3)CO4)cc21 (stereo not drawn) [Compound A365] | +++ (Degradation > 70%)
O=C1CCN(c2cccc(N3CCN(Cc4cccc(Nc5ncc6c(n5)-c5ccc(Cl)cc5C(c5c(F)cccc5F)=NC6)c4)CC3)c2)C(=O)N1 [Compound A146] | ++ (30% < Degradation ≤ 70%)
N#CC1CN(C2CCN(c3ccc(N4CCC(=O)NC4=O)cn3)CC2)CCN1c1ccc(Nc2ncc3c(n2)-c2ccc(Cl)cc2C(c2c(F)cccc2F)=NC3)cc1 (stereo not drawn) [Compound A251] | +++ (Degradation > 70%)
O=C1CCN(c2cccc(C3CCN(CCOc4cccc(Nc5ncc6c(n5)-c5ccc(Cl)cc5C(c5c(F)cccc5F)=NC6)c4)C3)c2)C(=O)N1 (stereo not drawn) [Compound A144] | + (Degradation ≤ 30%)

Same assay, conditions: 1 µM compound, Jurkat cells, 24 h, Table 2

Compound | Percentage of AURKA Degradation Induced by 1 µM Compound in Jurkat Cells
N#Cc1ccc2c(c1)C(c1c(F)cccc1F)=NCc1cnc(Nc3ccc(N4CC(F)(CN5CCN(c6ccc(N7CCC(=O)NC7=O)cn6)CC5)C4)cc3)nc1-2 [Compound A319] | +++ (Degradation > 70%)
CN(C)Cc1ccc2c(c1)C(c1c(F)cccc1F)=NCc1cnc(Nc3ccc(C(=O)NC4CC5(CCN(c6ccc(N7CCC(=O)NC7=O)cn6)CC5)C4)cc3)nc1-2 [Compound A172] | +++ (Degradation > 70%)
Cc1c(N2CCN(CCc3cccc(Nc4ncc5c(n4)-c4ccc(Cl)cc4C(c4c(F)cccc4F)=NC5)c3)CC2)cccc1N1CCC(=O)NC1=O [Compound A155] | ++ (30% < Degradation ≤ 70%)
O=C1CCN(c2ccc(N3CCC4(CCN(C(=O)C56CC(Nc7ncc8c(n7)-c7ccc(Cl)cc7C(c7c(F)cccc7F)=NC8)(C5)C6)CC4)CC3)nc2)C(=O)N1 [Compound A265] | + (Degradation ≤ 30%)
CP(C)(=O)c1ccc2c(c1)C(c1c(F)cccc1F)=NCc1cnc(Nc3ccc(N4CCN(C5CCN(c6ccc(N7CCC(=O)NC7=O)cn6)CC5)CC4=O)cc3)nc1-2 [Compound A268] | +++ (Degradation > 70%)
O=C1CCN(c2ccc(N3CCC4(CC3)CCN(C3CCN(c5ccc(Nc6ncc7c(n6)-c6ccc(Cl)cc6C(c6c(F)cccc6F)=NC7)cc5)CC3)CCO4)nc2)C(=O)N1 [Compound A355] | +++ (Degradation > 70%)
O=C1CCN(c2ccc(N3CCC4(CC3)CC(N3CCN(c5ccc(Nc6ncc7c(n6)-c6ccc(Cl)cc6C(c6nccs6)=NC7)cc5)CC3)CO4)nc2)C(=O)N1 (stereo not drawn) [Compound A345] | +++ (Degradation > 70%)
O=C1CCN(c2ccc(N3CCC4(CC3)C[C@@H](N3CCN(c5ccc(Nc6ncc7c(n6)-c6ccc(Cl)cc6C(c6c(F)cccc6F)=NC7)cc5)CC3)CO4)nc2)C(=O)N1 [Compound A341] | +++ (Degradation > 70%)
O=C1CCN(c2cccc(N3CCN(CCOc4cccc(Nc5ncc6c(n5)-c5ccc(C7CC7)cc5C(c5c(F)cccc5F)=NC6)c4)CC3)c2)C(=O)N1 [Compound A148] | +++ (Degradation > 70%)
Cn1nc(N2CCC(=O)NC2=O)c2ccc(N3CCC4(CC3)CC(N3CCN(c5ccc(Nc6ncc7c(n6)-c6ccc(Cl)cc6C(c6c(F)cccc6F)=NC7)cc5)CC3)CO4)cc21 (stereo not drawn) [Compound A365] | +++ (Degradation > 70%)
O=C1CCN(c2cccc(N3CCN(Cc4cccc(Nc5ncc6c(n5)-c5ccc(Cl)cc5C(c5c(F)cccc5F)=NC6)c4)CC3)c2)C(=O)N1 [Compound A146] | + (Degradation ≤ 30%)
N#CC1CN(C2CCN(c3ccc(N4CCC(=O)NC4=O)cn3)CC2)CCN1c1ccc(Nc2ncc3c(n2)-c2ccc(Cl)cc2C(c2c(F)cccc2F)=NC3)cc1 (stereo not drawn) [Compound A251] | +++ (Degradation > 70%)
O=C1CCN(c2cccc(C3CCN(CCOc4cccc(Nc5ncc6c(n5)-c5ccc(Cl)cc5C(c5c(F)cccc5F)=NC6)c4)C3)c2)C(=O)N1 (stereo not drawn) [Compound A144] | + (Degradation ≤ 30%)

Each compound was assayed on H82 cells (assay: cells). Settings: Homo sapiens, NCI-H82, read-out: IC50 in H82 Cells.
Type: cell-based
Procedure, shortened: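 After 6 days' compound treatment at 37 °C (final DMSO 0.1%, RPMI1640/10% FBS), viable H82 cells were quantified by ATP-dependent CellTiter-Glo luminescence. Remaining activity was calculated against DMSO and medium wells, and a sigmoidal fit gave IC50.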

Compound | IC50
O=C1CCN(c2ccc(N3CCC4(CC3)CCN(C3CCN(c5ccc(Nc6ncc7c(n6)-c6ccc(Cl)cc6C(c6c(F)cccc6F)=NC7)cc5)CC3)CCO4)nc2)C(=O)N1 [Compound A355] | < 1000 nM
O=C1CCN(c2ccc(N3CCC4(CC3)C[C@@H](N3CCN(c5ccc(Nc6ncc7c(n6)-c6ccc(Cl)cc6C(c6c(F)cccc6F)=NC7)cc5)CC3)CO4)nc2)C(=O)N1 [Compound A341] | < 1000 nM

Same assay, conditions: Homo sapiens, NCI-H82; H82 cells, 4000 cells/well, CellTiter-Glo; read-out: IC50 in H82 Cells

Compound | IC50
N#Cc1ccc2c(c1)C(c1c(F)cccc1F)=NCc1cnc(Nc3ccc(N4CC(F)(CN5CCN(c6ccc(N7CCC(=O)NC7=O)cn6)CC5)C4)cc3)nc1-2 [Compound A319] | < 1000 nM
CN(C)Cc1ccc2c(c1)C(c1c(F)cccc1F)=NCc1cnc(Nc3ccc(C(=O)NC4CC5(CCN(c6ccc(N7CCC(=O)NC7=O)cn6)CC5)C4)cc3)nc1-2 [Compound A172] | < 1000 nM
Cc1c(N2CCN(CCc3cccc(Nc4ncc5c(n4)-c4ccc(Cl)cc4C(c4c(F)cccc4F)=NC5)c3)CC2)cccc1N1CCC(=O)NC1=O [Compound A155] | < 1000 nM
O=C1CCN(c2ccc(N3CCC4(CCN(C(=O)C56CC(Nc7ncc8c(n7)-c7ccc(Cl)cc7C(c7c(F)cccc7F)=NC8)(C5)C6)CC4)CC3)nc2)C(=O)N1 [Compound A265] | < 1000 nM
CP(C)(=O)c1ccc2c(c1)C(c1c(F)cccc1F)=NCc1cnc(Nc3ccc(N4CCN(C5CCN(c6ccc(N7CCC(=O)NC7=O)cn6)CC5)CC4=O)cc3)nc1-2 [Compound A268] | 1000 to 10000 nM
O=C1CCN(c2ccc(N3CCC4(CC3)CC(N3CCN(c5ccc(Nc6ncc7c(n6)-c6ccc(Cl)cc6C(c6nccs6)=NC7)cc5)CC3)CO4)nc2)C(=O)N1 (stereo not drawn) [Compound A345] | < 1000 nM
O=C1CCN(c2cccc(N3CCN(CCOc4cccc(Nc5ncc6c(n5)-c5ccc(C7CC7)cc5C(c5c(F)cccc5F)=NC6)c4)CC3)c2)C(=O)N1 [Compound A148] | < 1000 nM
Cn1nc(N2CCC(=O)NC2=O)c2ccc(N3CCC4(CC3)CC(N3CCN(c5ccc(Nc6ncc7c(n6)-c6ccc(Cl)cc6C(c6c(F)cccc6F)=NC7)cc5)CC3)CO4)cc21 (stereo not drawn) [Compound A365] | < 1000 nM
O=C1CCN(c2cccc(N3CCN(Cc4cccc(Nc5ncc6c(n5)-c5ccc(Cl)cc5C(c5c(F)cccc5F)=NC6)c4)CC3)c2)C(=O)N1 [Compound A146] | < 1000 nM
N#CC1CN(C2CCN(c3ccc(N4CCC(=O)NC4=O)cn3)CC2)CCN1c1ccc(Nc2ncc3c(n2)-c2ccc(Cl)cc2C(c2c(F)cccc2F)=NC3)cc1 (stereo not drawn) [Compound A251] | < 1000 nM
O=C1CCN(c2cccc(C3CCN(CCOc4cccc(Nc5ncc6c(n5)-c5ccc(Cl)cc5C(c5c(F)cccc5F)=NC6)c4)C3)c2)C(=O)N1 (stereo not drawn) [Compound A144] | < 1000 nM

— patent EP4818168A1, “FUSED RING COMPOUND, PHARMACEUTICAL COMPOSITION THEREOF AND USE THEREOF” (priority 2023, dated 2025)
